The target of test [1] is T1, hNav1.3 (SCN3A) (Homo sapiens, UniProt Q9NY46).
T1 construct: expressed in transfected cells
The test can be described thus: Voltage-dependent inhibition of the Nav1.3 sodium channel. In kind it is cell-based. As to conditions: voltage-dependent block of peak current, read-out: Nav 1.3-VDB 1 uM. The method, then:
HEK-293 cells stably expressing wild-type (WT) hNav1.3 (SCN3A NCBI # NP 001075, SCN1B NCBI # NM 001037.4, SCN2B NCBI # NM 004588.2) were used to record INa. Cells are maintained with standard tissue culture procedures and stable channel expression is maintained with 800 ug/mL G418 and 3 ug/mL Puromycin in the culture medium. Unless otherwise noted, all reagents are purchased from Sigma-Aldrich (St Louis, Mo., U.S.A.).
Assays measuring Voltage-Dependent Block (VDB) of Nav1.3 are performed on an automated electrophysiology platform, QPatch 16X or QPatch HT (Sophion Bioscience, Copenhagen, Denmark), using the whole cell patch clamp technique to measure currents through the cell membrane. Series resistance compensation is set to 100% and series resistance and whole-cell compensation are performed automatically. Currents stored in the Sophion Bioscience Oracle database (Sophion Bioscience, Copenhagen, Denmark). Analysis is performed using QPatch Assay software and data are compiled in Excel 2010 (Microsoft, Seattle, Wash., U.S.A.).
The internal (pipette) solution consists of (in mM) 105 CsF, 10 NaF, 20 CsCl, 2 EGTA, 10 HEPES, 10 Dextrose with a pH of 7.35 and osmolarity of 300 mOsmol/kg. The external (bath) solution contains in (mM): 80 NaCl, 60 Choline-Cl, 4 KCl, 1.8 CaCl2, 1 MgCl2, 10 dextrose, 10 HEPES, with a pH of 7.35 and osmolarity of 310 mOsmol/kg. Experiments are carried out at 23-25° C.
Compound stocks are routinely made by the Gilead Sample Bank in vials to 10 mM in dimethyl sulfoxide (DMSO). In some cases, when compounds are not soluble in DMSO, they are made in 100% ethanol. Stocks are sonicated as necessary. Compounds are diluted in extracellular solution using a MicroLab Nimbus (Hamilton Robotics, Reno, Nev.) to 1 μM in glass vials and transferred to glass well plates before robotic addition to the cells.
Cells are allowed to stabilize for 10 min after establishment of the whole-cell configuration before current is measured. The test compound is applied 3 times at 120 second intervals to allow for equilibration. Currents were leak subtracted using a P/4 procedure, low-pass Bessel filtered at 5 kHz and digitized at 25 kHz. Results are presented as mean percentage inhibition.
Voltage-dependent block of Nav1.3 peak current was measured during a voltage step to 0 mV (20 ms) following a voltage step pre-conditioning steps (−55 mV for 10 sec followed by −120 mV for 10 ms). The holding potential was −120 mV and this voltage protocol induces half maximal inactivation of Nav1.3. The voltage protocol for VDB was performed every 45 seconds in the absence and presence of compound and percentage inhibition was calculated with respect to the compound free condition.

Test [2] concerns Ischemia-Induced ST Segment Elevation in Anesthetized Rabbits. Briefly: Ischemia-induced ST segment elevation in anesthetized rabbits. In kind it is in vivo, New Zealand rabbits. Particulars: iv infusion; 15 min LAD ischemia after 30 min of compound administration. The method, then:
This study was undertaken to determine the anti-ischemic effects of compounds of the present disclosure in an in vivo rabbit model.
Female New Zealand rabbits (3.0-4.0 kg) were purchased from Western Oregon Rabbitry. Animals were housed on a 12-h light and dark cycle and received standard laboratory chow and water. All experiments were performed in accordance with the Guide for the Care and Use of Laboratory Animals published by The National Research Council and with the experimental protocol approved by the Institutional Animal Care Committee of Gilead Sciences, Inc.
Rabbits were anesthetized with ketamine (35 mg/kg) and xylazine (5 mg/kg) intramuscular injection (im). A tracheotomy was performed and the trachea was intubated with an endotracheal tube. The animal was ventilated with room air supplemented with oxygen using a pressure control animal ventilator (Kent Scientific Corp., Torrington, Conn.) at a respiratory rate of 40 strokes/min and peak inspiration pressure of 10 mmH2O, which was adjusted to keep blood gases and pH within the physiological range (iSTAT clinic analyzer, Heska Corp.; Waukesha, Wis.). The left femoral artery was cannulated for the measurement of blood pressure (BP). Blood samples were also withdrawn from femoral artery. The right external jugular vein was cannulated for drug/vehicle administration. Needle electrodes were inserted subcutaneously into the limbs for recording of the surface electrocardiogram (ECG).
The heart was exposed via an incision in the 4th intercostal space (4th and/or 5th ribs were cut for a clear surgical vision). The chest was opened and a pericardial cradle was formed using 4 retractors. A coronary artery occluder, comprised of a snare made of 5 cm PE-10 tubing with a 6-0 Prolene polypropylene suture in it, was placed loosely around the left anterior descending artery (LAD) at its origin. Two unipolar electrodes, made with teflon coated silver wire attached to a small patch of filter paper, were attached on the surface of the ischemic and normal regions of the left ventricle to record epicardial electrocardiogram.
Reference electrodes were placed in the open incision of the neck. The body temperature of the animal was monitored via a rectal thermometer and maintained at 37-40° C. by adjusting the surface temperature of the surgical table. Regional ischemia (15 min) was induced by ligating the LAD followed by 15 min of reperfusion caused by releasing the ligation. The heart was excised at the end of the experiment and the LAD was re-ligated. The ischemic area was visualized by perfusing the heart with 1% Evans blue in saline and calculated as a percentage of total ventricular weight. Rabbits with ischemic area less than 10% or larger than 25% were excluded from the analysis. Animals were randomly assigned to vehicle and test compound groups. Test compounds were dissolved in 15% NMP, 10% Solutol and 75% de-ionized water (dH2O). Test compounds were given as an iv infusion at a rate targeted to reach plasma concentrations of 1 μM. After 30 min of compound administration the heart was subjected to 15 min of ischemia followed by 15 min of reperfusion.

Some results are limits rather than exact numbers.

T1 sequence (Q9NY46 1-1951 isoform Q9NY46-2): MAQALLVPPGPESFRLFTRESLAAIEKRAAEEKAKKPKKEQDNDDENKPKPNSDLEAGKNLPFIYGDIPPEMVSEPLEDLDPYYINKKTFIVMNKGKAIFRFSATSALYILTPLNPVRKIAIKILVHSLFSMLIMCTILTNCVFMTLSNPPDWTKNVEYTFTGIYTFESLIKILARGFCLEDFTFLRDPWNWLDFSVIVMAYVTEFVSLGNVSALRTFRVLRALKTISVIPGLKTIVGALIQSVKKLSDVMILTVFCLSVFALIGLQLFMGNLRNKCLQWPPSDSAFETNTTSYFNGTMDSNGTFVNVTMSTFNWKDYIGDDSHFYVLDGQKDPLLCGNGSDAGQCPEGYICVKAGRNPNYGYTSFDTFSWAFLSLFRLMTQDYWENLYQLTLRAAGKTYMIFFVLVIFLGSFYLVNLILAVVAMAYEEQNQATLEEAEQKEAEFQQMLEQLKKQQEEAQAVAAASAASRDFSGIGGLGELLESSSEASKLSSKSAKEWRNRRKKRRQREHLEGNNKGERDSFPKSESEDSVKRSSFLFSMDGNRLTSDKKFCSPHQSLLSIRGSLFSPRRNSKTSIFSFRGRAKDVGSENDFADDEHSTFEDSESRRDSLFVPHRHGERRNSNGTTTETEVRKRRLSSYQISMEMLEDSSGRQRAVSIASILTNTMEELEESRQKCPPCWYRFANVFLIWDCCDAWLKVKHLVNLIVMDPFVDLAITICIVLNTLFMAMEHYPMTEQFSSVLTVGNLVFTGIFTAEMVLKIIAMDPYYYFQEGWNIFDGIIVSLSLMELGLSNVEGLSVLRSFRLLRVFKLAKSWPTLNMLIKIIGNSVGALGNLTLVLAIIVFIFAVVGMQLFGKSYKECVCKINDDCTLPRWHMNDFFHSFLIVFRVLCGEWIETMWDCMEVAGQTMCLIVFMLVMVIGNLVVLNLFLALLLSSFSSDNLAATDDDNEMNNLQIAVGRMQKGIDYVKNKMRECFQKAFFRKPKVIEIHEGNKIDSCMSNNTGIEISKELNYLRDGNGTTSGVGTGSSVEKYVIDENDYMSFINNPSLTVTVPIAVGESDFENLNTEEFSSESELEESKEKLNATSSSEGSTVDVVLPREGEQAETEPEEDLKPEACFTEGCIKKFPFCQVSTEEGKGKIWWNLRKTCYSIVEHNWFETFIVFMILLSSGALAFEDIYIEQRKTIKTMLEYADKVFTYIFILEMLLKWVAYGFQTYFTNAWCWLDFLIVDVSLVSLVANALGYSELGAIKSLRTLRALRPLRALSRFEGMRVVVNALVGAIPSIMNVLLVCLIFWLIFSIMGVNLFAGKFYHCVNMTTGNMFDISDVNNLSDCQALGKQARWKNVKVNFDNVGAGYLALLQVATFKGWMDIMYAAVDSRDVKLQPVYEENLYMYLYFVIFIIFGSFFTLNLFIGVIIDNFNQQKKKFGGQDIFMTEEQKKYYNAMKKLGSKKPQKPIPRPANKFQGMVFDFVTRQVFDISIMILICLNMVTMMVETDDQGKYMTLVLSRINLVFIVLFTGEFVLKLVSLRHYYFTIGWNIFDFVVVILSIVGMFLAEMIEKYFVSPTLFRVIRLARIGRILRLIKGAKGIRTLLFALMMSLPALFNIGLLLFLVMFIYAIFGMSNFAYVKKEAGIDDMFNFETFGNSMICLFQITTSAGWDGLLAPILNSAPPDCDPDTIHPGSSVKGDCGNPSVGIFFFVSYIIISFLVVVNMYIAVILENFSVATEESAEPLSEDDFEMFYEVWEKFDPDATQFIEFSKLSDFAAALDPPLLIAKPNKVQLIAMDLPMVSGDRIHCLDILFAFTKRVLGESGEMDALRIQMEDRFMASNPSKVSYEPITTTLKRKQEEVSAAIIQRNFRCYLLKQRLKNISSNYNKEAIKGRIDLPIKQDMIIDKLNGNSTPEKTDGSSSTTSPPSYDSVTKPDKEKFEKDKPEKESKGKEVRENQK
T1 sequence (Q07699 19-218 partner): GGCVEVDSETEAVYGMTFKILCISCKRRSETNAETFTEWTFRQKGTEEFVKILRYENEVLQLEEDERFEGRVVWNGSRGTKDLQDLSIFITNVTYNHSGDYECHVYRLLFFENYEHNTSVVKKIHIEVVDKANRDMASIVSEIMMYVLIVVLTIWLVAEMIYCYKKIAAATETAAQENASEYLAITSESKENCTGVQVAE
T1 sequence (O60939 30-215 partner): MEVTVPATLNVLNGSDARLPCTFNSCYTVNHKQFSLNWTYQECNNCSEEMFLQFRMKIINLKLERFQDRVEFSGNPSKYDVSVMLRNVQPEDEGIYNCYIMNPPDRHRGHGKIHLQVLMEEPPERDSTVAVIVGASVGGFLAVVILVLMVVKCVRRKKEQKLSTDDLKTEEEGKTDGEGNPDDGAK

As for `O=C1CCCN1CCOc1noc2ccc(-c3ccc(OC(F)(F)F)cc3)cc12` [Example 59, 1-(2-((5-(4-(trifluoromethoxy)phenyl)benzo[d]isoxazol-3-yl)oxy)ethyl)pyrrolidin-2-one], the inhibition at 1 µM in test [1] amounted to 14.5%. In test [2], the “Rabbit ST Segment (Percent reduction)” value is reported as 23 Percent reduction.

In the case of `Cc1nnc(COc2noc3ccc(-c4ccc(OC(F)(F)F)cc4)cc23)o1` [Example 99, 3-((5-methyl-1,3,4-oxadiazol-2-yl)methoxy)-5-(4-(trifluoromethoxy)phenyl)benzo[d]isoxazole], the inhibition at 1 µM in test [1] came to 41.4%.

For the compound `FC(F)(F)Oc1ccc(-c2ccc3onc(OCc4ncccn4)c3c2)cc1` [Example 1, 3-(pyrimidin-2-ylmethoxy)-5-(4-(trifluoromethoxy)phenyl)benzo[d]isoxazole], the “Rabbit ST Segment (Percent reduction)” value in test [2] amounted to 32 Percent reduction. Regarding `COc1cc(-c2ccc(OC(F)(F)F)cc2)cc2c(OCc3ncccn3)noc12` [Example 22, 7-methoxy-3-(pyrimidin-2-ylmethoxy)-5-(4-(trifluoromethoxy)phenyl)benzo[d]isoxazole], the inhibition at 1 µM in test [1] stood at 17.3%. On the same count and under the same terms, in the case of `COc1cc(OC(F)(F)F)ccc1-c1ccc2onc(OCc3ncccn3)c2c1` [Example 4, 5-(2-methoxy-4-(trifluoromethoxy)phenyl)-3-(pyrimidin-2-ylmethoxy)benzo[d]isoxazole] it was 12.2%.

As for `Cc1cc(-c2ccc3onc(OCc4ncccn4)c3c2)ccc1OC(F)(F)F` [Example 7, 5-(3-methyl-4-(trifluoromethoxy)phenyl)-3-(pyrimidin-2-ylmethoxy)benzo[d]isoxazole], the inhibition at 1 µM in test [1] is less than 5%.

For the compound `FC(F)(F)Oc1ccc(-c2ccc3onc(OCc4nnc(C5CC5)o4)c3c2)cc1` [Example 96, 3-((5-cyclopropyl-1,3,4-oxadiazol-2-yl)methoxy)-5-(4-(trifluoromethoxy)phenyl)benzo[d]isoxazole], the “Rabbit ST Segment (Percent reduction)” value in test [2] was found to be 46 Percent reduction. In the case of `Cc1ccnc(COc2noc3ccc(-c4ccc(OC(F)(F)F)cc4)cc23)n1` [Example 5, 3-((4-methylpyrimidin-2-yl)methoxy)-5-(4-(trifluoromethoxy)phenyl)benzo[d]isoxazole], in test [1], the inhibition at 1 µM amounted to 13.9%. Moreover, in test [2], the “Rabbit ST Segment (Percent reduction)” value stood at 0 Percent reduction.

With `Fc1cc(C(F)(F)F)ccc1-c1ccc2onc(OCc3ncccn3)c2c1` [Example 6, 5-(2-fluoro-4-(trifluoromethyl)phenyl)-3-(pyrimidin-2-ylmethoxy)benzo[d]isoxazole], in test [1], the inhibition at 1 µM was less than 5%. Also, the “Rabbit ST Segment (Percent reduction)” value in test [2] is given as 0 Percent reduction. Take `FC(F)(F)Oc1ccc(-c2ccc3onc(OCCn4cncn4)c3c2)cc1` [Example 58, 3-(2-(1H-1,2,4-triazol-1-yl)ethoxy)-5-(4-(trifluoromethoxy)phenyl)benzo[d]isoxazole]: the “Rabbit ST Segment (Percent reduction)” value in test [2] was 14 Percent reduction. As to `Fc1cc(-c2ccc3onc(OCc4ncccn4)c3c2)ccc1Cl` [Example 8, 5-(4-chloro-3-fluorophenyl)-3-(pyrimidin-2-ylmethoxy)benzo[d]isoxazole], in test [1], the inhibition at 1 µM is 6.4%. On the same count and under the same terms, in the case of `FC(F)(F)Oc1cccc(-c2ccc3onc(OCc4ncccn4)c3c2)c1` [Example 10, 3-(pyrimidin-2-ylmethoxy)-5-(3-(trifluoromethoxy)phenyl)benzo[d]isoxazole] it was 8.5%; in that of `CC(COc1noc2ccc(-c3ccc(OC(F)(F)F)cc3)cc12)n1cccn1` (stereo not shown) [Example 68, 3-(2-(1H-pyrazol-1-yl)propoxy)-5-(4-(trifluoromethoxy)phenyl)benzo[d]isoxazole], 27.1%.
